# Reference: patent US20110159507A1, “METHOD FOR DETECTING THE DRUG EFFECTS OF DNA METHYLATION-INHIBITORS” (SCHOOL JURIDICAL PERSON THE KITASATO INSTITUTE, priority 2008, published 2011)
# What was measured:
# [1] = test system: K562 PU.1 KD cells (PU 2-10 and PU 3-10); assay: cell viability assay (WST-8), percentages of dead cells after drug administration, PU.1 gene-knockdown cells vs control cells; type: cell-based; settings: for drug sensitivity of PU.1 gene-knockdown cells to the DNA methylation inhibitor: K562 PU.1 KD cells
# Text: FIGS. 1(a) and 1(b) illustrate and show the results of establishment experiments of PU.1-knockdown lines (K562 PU.1 KD cells). That is, a PU.1 siRNA expression vector (Takara, Ohtsu, Japan) and its control vector (Takara) were introduced into K562 cells as leukemia cell lines in accordance with the method described in the document (Takahashi Set al., British Journal of Haematology, 2005 (130), p 428-436). Specifically, in the method, electroporation was employed to introduce the expression vector and its control vector into leukemia cell lines (K562 cells). The introduced cells were cultured in an RPMI medium in the presence of 1 μg/mL puromycin to select cells that constitutively express PU.1 siRNAs and isolate the cells by a limiting dilution method. The isolated control cells (Control K562) (V5 and V6) and PU.1-knockdown cells (2-10 and 3-10) (K562 PU.1 KD cells) were used to prepare proteins based on a conventional method. The proteins were subjected to SDS-PAGE electrophoresis, then transferred to a membrane, and blotted with a PU.1 antibody and β-actin useful for the estimation of protein amounts (FIG. 1(a)).
# Two kinds of PU.1 gene-knockdown cells (PU 2-10 and PU 3-10) and control cells (vec 5 and vec 6) were compared for their sensitivities to 5-azadc (AZA) (% effect: percentages of dead cells after drug administration). In other words, the respective cells were seeded in a 96-well plate at a density of 2,000 cells/well, and 5-azadc (AZA) was added into the well at concentrations of 0.2, 1, 3.9, 15.6, 62.5, 250, and 1,000 nM. Then, cell viability assays were performed after 96 hours. In the assays, 10 μL of a WST-8 reagent (Dojindo, Japan) were added to a well in which 100 μL of a cell culture medium had been loaded, culture was performed in a 5% CO2 incubator at 37° C. for 2 hours, and the absorbance is then measured using a microplate reader at a wavelength of 490 nm, to thereby measure cell viability. FIG. 7 illustrates the results in terms of percentages of dead cells (% effect).
# [2] = test system: K562 PU.1 OE cells (A2 and H8); assay: cell viability assay (WST-8), percentages of dead cells after drug administration, PU.1 gene-overexpressing cells vs control cells; type: cell-based
# Text: FIGS. 3(a) and 3(b) illustrate and show the results of establishment experiments of PU.1-overexpressing cell lines (K562 PU.1 OE cells). That is, the PU.1 expression vector described in the literature was used (Inomata et al., Leukemia Research 30 (2006) p 659-664). The expression vector and its control vector pcDNA3.1 (Invitrogen, CA) were introduced into K562 cells as leukemia cell lines in accordance with the method described in literature (Takahashi S et al., British Journal of Haematology, 2005 (130), p 428-436). The introduced cells were cultured in an RPMI medium in the presence of 400 μg/mL Neomycin to select cells that constitutively express PU.1 and isolate the cells by a limiting dilution method. […]
# Two kinds of PU.1 gene-knockdown cells (PU 2-10 and PU 3-10) and control cells (vec 5 and vec 6) were compared for their sensitivities to 5-azadc (AZA) (% effect: percentages of dead cells after drug administration). […] In the assays, 10 μL of a WST-8 reagent (Dojindo, Japan) were added to a well in which 100 μL of a cell culture medium had been loaded, culture was performed in a 5% CO2 incubator at 37° C. for 2 hours, and the absorbance is then measured using a microplate reader at a wavelength of 490 nm, to thereby measure cell viability. […]
Compound,drug sensitivity of PU.1 gene-knockdown cells to the DNA methylation inhibitor [1],drug sensitivity of PU.1 gene-knockdown cells to the DNA methylation inhibitor ([1]; listed as 5-aza-2′-deoxycytidine),"percentages of dead cells (% effect): lower than in control cells (vec 5 and vec 6) by ([1]; PU 2-10 and PU 3-10, 0.2-1,000 nM, 96 hours, FIG. 7)","percentages of dead cells (% effect): higher than in control cells (vec 1 and vec 2) by ([2]; A2 and H8, same experiment as FIG. 7 (0.2-1,000 nM, 96 hours), FIG. 8)",drug sensitivity of PU.1 gene-overexpressing cells to the DNA methylation inhibitor ([2]; K562 PU.1 OE cells)
Nc1ncn([C@@H]2O[C@H](CO)[C@@H](O)[C@H]2O)c(=O)n1 [5-azacytidine],resistant,,,,
"Nc1ncn([C@H]2C[C@H](O)[C@@H](CO)O2)c(=O)n1 [5-azadc, 5-aza-2′-deoxycytidine]",resistant and poorly sensitive,resistant,about 20%,about 20%,highly sensitive
